Where a name gives a salt, the structure may show the parent alone.
tested on: Human fibrosarcoma cells (HT-1080 cells); experiment: In vitro inhibitory action against ferroptosis (Erastin-induced cell death, Cell Counting Kit-8); assay type: cell-based; conditions: evaluation concentration 10 μmol/L, Erastin 3 μmol/L, 24 hours
Method: The inhibitory action against ferroptosis of the tetrahydroquinoline derivative (I) or a pharmaceutically acceptable salt thereof was evaluated with Human fibrosarcoma cells (HT-1080 cells), by using, as an index, the inhibitory action against the cell death induced by treatment with a ferroptosis inducer, Erastin.
HT-1080 cells (ATCC) were cultured in a mixture (hereinafter referred to as vehicle) composed of DMEM/F12 (Thermo Fisher Scientific, Inc.), a final concentration of 10% fetal bovine serum (Thermo Fisher Scientific, Inc.), and a final concentration of 1% penicillin-streptomycin solution (Nacalai Tesque, Inc.). Cells were seeded into 96-well plates (Corning Inc.) at 5×10^4 cells/well and cultured overnight.
A test compound was dissolved in DMSO, and the resulting solution was diluted in the vehicle to a final concentration of 1% DMSO and then used. […] Thirty minutes after the addition of the test compound, Erastin (Cayman Chemical Co.) diluted in the vehicle at a final concentration of 3 μmol/L was added to wells. The wells added with the test compound and Erastin were grouped as “test compound,” and the wells added with no test compound and no Erastin were grouped as “background,” and the wells added with no test compound but with Erastin were grouped as “control.” Twenty-four hours after the addition of Erastin, 5 μL of Cell Counting Kit-8 (Dojindo Laboratories) was added to each well and incubated for 4 hours, and the absorbance at 450 nm was then measured for each well (N=2). […] Ferroptosis inhibition rate (%)=[1−{(Average absorbance value at 450 nm measured when a test compound is added)−(Average absorbance value at 450 nm measured in the background)}/{(Average absorbance value at 450 nm measured in the control)−(Average absorbance value at 450 nm measured in the background)}]×100 Equation 1

Question: How did the “Ferroptosis inhibition rate (%)” value turn out when `Cc1ccc2c(c1)CCC(c1ccc(C(N)=O)cc1)N2` (stereo not shown) [Example 111, 4-(6-methyl-1,2,3,4-tetrahydroquinolin-2-yl)benzamide] was run?
Answer: 98.91%

Question: How did the “Ferroptosis inhibition rate (%)” value turn out when `Cc1ccc2c(c1)CCC(c1ccc(C(N)=O)cc1)N2` (stereo not shown) [Example 110, 4-(6-methyl-1,2,3,4-tetra-hydroquinolin-2-yl)benzamide] was run?
Answer: 103.0%

same assay, conditions: evaluation concentration 25 μmol/L, Erastin 3 μmol/L, 24 hours

Question: With `Nc1ccc2c(c1)CCC(c1ccccc1)N2` (stereo not shown) [Example 64, 2-phenyl-1,2,3,4-tetrahydroquinoline-6-amine dihydrochloride] as the molecule, how does the “Ferroptosis inhibition rate (%)” value read?
Answer: 82.89%

same assay, conditions: evaluation concentration 30 μmol/L, Erastin 3 μmol/L, 24 hours

Question: Which “Ferroptosis inhibition rate (%)” value does the source give for `c1ccc2c(c1)CCC(c1cn[nH]c1)N2` (stereo not shown) [Example 13, 2-(1H-pyrazol-4-yl)-1,2,3,4-tetrahydroquinoline] here?
Answer: 119.6%

Question: How did the “Ferroptosis inhibition rate (%)” value turn out when `O=C1NCc2cc(C3CCc4ccccc4N3)ccc21` (stereo not shown) [Example 25, 5-(1,2,3,4-tetrahydroquinolin-2-yl)isoindolin-1-one] was run?
Answer: 105.3%

Question: How did the “Ferroptosis inhibition rate (%)” value turn out when `NS(=O)(=O)c1ccc(C2CCc3cc(C(F)(F)F)ccc3N2)cc1` (stereo not shown) [Example 142, 4-(6-(trifluoromethyl)-1,2,3,4-tetrahydroquinolin-2-yl)benzenesulfonamide] was run?
Answer: 64.86%

Question: Which “Ferroptosis inhibition rate (%)” value does the source give for `c1cncc(C2CNc3ccccc3C2)c1` (stereo not shown) [Example 170, 3-(pyridin-3-yl)-1,2,3,4-tetrahydroquinoline] here?
Answer: 93.41%

Question: How did the “Ferroptosis inhibition rate (%)” value turn out when `CC(C)(C)C(=O)Nc1ccc2c(c1)CCC(c1ccccc1)N2` (stereo not shown) [Example 74, N-(2-phenyl-1,2,3,4-tetrahydroquinolin-6-yl)pivalamide] was run?
Answer: 85.08%

Question: How did the “Ferroptosis inhibition rate (%)” value turn out when `Brc1ccc2c(c1)CCC(c1ccccc1)N2` (stereo not shown) [Example 70, 6-bromo-2-phenyl-1,2,3,4-tetrahydroquinoline] was run?
Answer: 97.10%

Question: With `O=C1CCc2cc(C3CCc4ccccc4N3)ccc2N1` (stereo not shown) [Example 23, 1,2,3,3′,4,4′-hexahydro-[2,6′-biquinolin]-2′(1′H)-one] as the molecule, how does the “Ferroptosis inhibition rate (%)” value read?
Answer: 68.45%

Question: How did the “Ferroptosis inhibition rate (%)” value turn out when `Cc1ccc2c(c1)CCC(c1ccoc1)N2` (stereo not shown) [Example 102, 2-(furan-3-yl)-6-methyl-1,2,3,4-tetrahydroquinoline] was run?
Answer: 77.96%

Question: For `COC(=O)[C@@H]1C[C@H](c2ccccc2)Nc2ccccc21` (relative stereo) [Example 88, methyl (2R*, 4R*)-2-phenyl-1,2,3,4-tetrahydroquinolin-4-carboxylate], which “Ferroptosis inhibition rate (%)” value is on record?
Answer: 97.70%

Question: Which “Ferroptosis inhibition rate (%)” value does the source give for `OCC1(c2ccccc2)CCc2ccccc2N1` (stereo not shown) [Example 92, (2-phenyl-1,2,3,4-tetrahydroquinolin-2-yl)methanol] here?
Answer: 66.40%

Question: Which “Ferroptosis inhibition rate (%)” value does the source give for `OCc1ccc(C2CNc3ccccc3C2)cc1` (stereo not shown) [Example 165, (4-(1,2,3,4-tetrahydroquinolin-3-yl)phenyl)methanol] here?
Answer: 96.77%

Question: Which “Ferroptosis inhibition rate (%)” value does the source give for `CN1CCN(C(=O)c2ccc(C3CCc4ccccc4N3)cc2)CC1` (stereo not shown) [Example 43, (4-methylpiperazin-1-yl)(4-(1,2,3,4-tetrahydroquinolin-2-yl)phenyl)methanone] here?
Answer: 107.1%

Question: `c1ccc2c(c1)CCC(c1cn[nH]c1)N2` (stereo not shown) [Example 12, 2-(1H-pyrazol-4-yl)-1,2,3,4-tetrahydroquinoline] was tested. Which “Ferroptosis inhibition rate (%)” value did it give?
Answer: 110.9%

Question: With `NS(=O)(=O)c1cccc(C2CCc3ccccc3N2)c1` (stereo not shown) [Example 19, 3-(1,2,3,4-tetrahydroquinolin-2-yl)benzenesulfonamide] as the molecule, how does the “Ferroptosis inhibition rate (%)” value read?
Answer: 100.5%

Question: How did the “Ferroptosis inhibition rate (%)” value turn out when `O=C(c1ccc(C2CCc3ccccc3N2)cc1)N1CCCCC1` (stereo not shown) [Example 41, piperidin-1-yl(4-(1,2,3,4-tetrahydroquinolin-2-yl)phen-yl)methanone] was run?
Answer: 102.2%

Question: Which “Ferroptosis inhibition rate (%)” value does the source give for `Cc1ccc2c(c1)CCC(c1ccc(S(N)(=O)=O)c(F)c1)N2` (stereo not shown) [Example 113, 2-fluoro-4-(6-methyl-1,2,3,4-tetrahydroquinolin-2-yl)benzenesulfonamide] here?
Answer: 97.54%

Question: `NC(=O)Nc1ccc2c(c1)CCC(c1ccccc1)N2` (stereo not shown) [Example 77, 1-(2-phenyl-1,2,3,4-tetrahydroquinolin-6-yl)urea] was tested. Which “Ferroptosis inhibition rate (%)” value did it give?
Answer: 101.6%

Question: How did the “Ferroptosis inhibition rate (%)” value turn out when `c1ccc2c(c1)CCC(c1cnsc1)N2` (stereo not shown) [Example 50, 4-(1,2,3,4-tetrahydroquinolin-2-yl)isothiazole] was run?
Answer: 103.2%

Question: Which “Ferroptosis inhibition rate (%)” value does the source give for `c1ccc(C2CCc3cc(N4CCCCC4)ccc3N2)cc1` (stereo not shown) [Example 72, 2-phenyl-6-(piperidin-1-yl)-1,2,3,4-tetrahydroquinoline] here?
Answer: 110.6%

Question: With `O=C1CCc2cc(C3CCc4ccccc4N3)ccc2N1` (stereo not shown) [Example 125, 1,2,3,3′,4,4′-hexahydro-[2,6′-biquinolin]-2′(1′H)-one] as the molecule, how does the “Ferroptosis inhibition rate (%)” value read?
Answer: 102.6%

Question: How did the “Ferroptosis inhibition rate (%)” value turn out when `COc1ccc(C2CCc3ccccc3N2)cn1` (stereo not shown) [Example 15, 2-(6-methoxypyridin-3-yl)-1,2,3,4-tetrahydroquinoline] was run?
Answer: 89.22%

Question: For `O=C1NCc2cc(C3CCc4ccccc4N3)ccc21` (stereo not shown) [Example 123, 5-(1,2,3,4-tetrahydroquinolin-2-yl)isoindolin-1-one], which “Ferroptosis inhibition rate (%)” value is on record?
Answer: 113.4%

Question: How did the “Ferroptosis inhibition rate (%)” value turn out when `CNC(=O)Cc1ccc2c(c1)CCC(c1ccccc1)N2` (stereo not shown) [Example 159, N-methyl-2-(2-phenyl-1,2,3,4-tetrahydroquinolin-6-yl)acetamide] was run?
Answer: 76.27%

Question: Which “Ferroptosis inhibition rate (%)” value does the source give for `CS(=O)(=O)c1ccc(C2CNc3ccccc3C2)cc1` (stereo not shown) [Example 169, 3-(4-(methylsulfonyl)phenyl)-1,2,3,4-tetrahydroquinoline] here?
Answer: 85.58%

Question: `Clc1ccc2c(c1)NCC(c1ccccc1)C2` (stereo not shown) [Example 164, 7-chloro-3-phenyl-1,2,3,4-tetrahydroquinoline] was tested. Which “Ferroptosis inhibition rate (%)” value did it give?
Answer: 72.33%

Question: For `CC(C)(C)NC(=O)Nc1ccc2c(c1)CCC(c1ccccc1)N2` (stereo not shown) [Example 127, 1-(tert-butyl)-3-(2-phenyl-1,2,3,4-tetrahydroquinolin-6-yl)urea], which “Ferroptosis inhibition rate (%)” value is on record?
Answer: 87.93%

Question: How did the “Ferroptosis inhibition rate (%)” value turn out when `c1ccc2c(c1)CCC(c1cnco1)N2` (stereo not shown) [Example 65, 5-(1,2,3,4-tetrahydroquinolin-2-yl)oxazole] was run?
Answer: 89.25%

Question: Which “Ferroptosis inhibition rate (%)” value does the source give for `O=C1CCc2cc(C3CCc4ccccc4N3)ccc2N1` (stereo not shown) [Example 126, 1,2,3,3′,4,4′-hexahydro-[2,6′-biquinolin]-2′(1′H)-one] here?
Answer: 97.29%

Question: Which “Ferroptosis inhibition rate (%)” value does the source give for `COC(=O)C1(c2ccccc2)CCc2ccccc2N1` (stereo not shown) [Example 93, methyl 2-phenyl-1,2,3,4-tetrahydroquinoline-2-carboxylate] here?
Answer: 89.78%

Question: `c1ccc(C2CCc3cc(CN4CCOCC4)ccc3N2)cc1` (stereo not shown) [Example 59, 4-((2-phenyl-1,2,3,4-tetrahydroquinolin-6-yl)methyl)morph-oline] was tested. Which “Ferroptosis inhibition rate (%)” value did it give?
Answer: 76.73%

Question: “7-fluoro-(1H-pyrazol-4-yl)-1,2,3,4-tetrahydroquinoline [Example 140]” was tested. Which “Ferroptosis inhibition rate (%)” value did it give?
Answer: 72.81%

same assay, conditions: evaluation concentration 50 μmol/L, Erastin 3 μmol/L, 24 hours

Question: Which “Ferroptosis inhibition rate (%)” value does the source give for `FC(F)(F)c1ccc2c(c1)CCC(c1ccccc1)N2` (stereo not shown) [Example 84, 2-phenyl-6-(trifluoromethyl)-1,2,3,4-tetrahydroquinoline] here?
Answer: 107.1%

Question: `COC(=O)c1ccc2c(c1)CCC(c1ccccc1)N2` (stereo not shown) [Example 56, methyl 2-phenyl-1,2,3,4-tetrahydroquinoline-6-carboxylate] was tested. Which “Ferroptosis inhibition rate (%)” value did it give?
Answer: 100.1%

Question: For `CNC(=O)c1cccc(C2CCc3ccccc3N2)c1` (stereo not shown) [Example 44, N-methyl-3-(1,2,3,4-tetrahydroquinolin-2-yl)benzamide], which “Ferroptosis inhibition rate (%)” value is on record?
Answer: 114.3%

Question: With `CC(C)(C)NC(=O)Nc1ccc2c(c1)CCC(c1ccccc1)N2` (stereo not shown) [Example 76, 1-(tert-butyl)-3-(2-phenyl-1,2,3,4-tetrahydroquinolin-6-yl)urea] as the molecule, how does the “Ferroptosis inhibition rate (%)” value read?
Answer: 85.43%

Question: With `c1ccc2c(c1)CCC(c1ccc3c(c1)OCO3)N2` (stereo not shown) [Example 9, 2-(benzo[d][1,3]dioxol-5-yl)-1,2,3,4-tetrahydroquinoline] as the molecule, how does the “Ferroptosis inhibition rate (%)” value read?
Answer: 88.84%

Question: Which “Ferroptosis inhibition rate (%)” value does the source give for `CC(C)(C)NC(=O)Nc1ccc2c(c1)CCC(c1ccc(C(N)=O)cc1)N2` (stereo not shown) [Example 87, 4-(6-(3-(tert-butyl)ureido)-1,2,3,4-tetrahydroquinolin-2-yl)benzamide] here?
Answer: 95.20%

Question: Which “Ferroptosis inhibition rate (%)” value does the source give for `COc1cccc(C2CCc3ccccc3N2)c1` (stereo not shown) [Example 5, 2-(3-methoxyphenyl)-1,2,3,4-tetrahydroquinoline] here?
Answer: 99.69%

Question: How did the “Ferroptosis inhibition rate (%)” value turn out when `COc1ccc(C2CCc3ccccc3N2)cc1` (stereo not shown) [Example 4, 2-(4-methoxyphenyl)-1,2,3,4-tetrahydroquinoline] was run?
Answer: 99.10%

Question: For `Fc1ccccc1C1CCc2ccccc2N1` (stereo not shown) [Example 28, 2-(2-fluorophenyl)-1,2,3,4-tetrahydroquinoline], which “Ferroptosis inhibition rate (%)” value is on record?
Answer: 109.4%

Question: Which “Ferroptosis inhibition rate (%)” value does the source give for `Cn1cc(C2CCc3ccccc3N2)cn1` (stereo not shown) [Example 14, 2-(1-methyl-1H-pyrazol-4-yl)-1,2,3,4-tetrahydroquinoline] here?
Answer: 97.39%

Question: For `Fc1cccc(C2CCc3ccccc3N2)c1` (stereo not shown) [Example 27, 2-(3-fluorophenyl)-1,2,3,4-tetrahydroquinoline], which “Ferroptosis inhibition rate (%)” value is on record?
Answer: 113.1%

Question: Which “Ferroptosis inhibition rate (%)” value does the source give for `CC(=O)Nc1ccc2c(c1)CCC(c1ccccc1)N2` (stereo not shown) [Example 73, N-(2-phenyl-1,2,3,4-tetrahydroquinolin-6-yl)acetamide] here?
Answer: 88.18%

Source: patent US12570639B2, “Tetrahydroquinoline derivative and medicinal use thereof” (Toray Industries, Inc., priority 2020, dated 2026)
